Laboratory results: patent US6653529B2, “Use of the maize X112 mutant ahas 2 gene and imidazolinone herbicides for selection of transgenic monocots, maize, rice and wheat plants resistant to the imidazolinone herbicides” (BASF Aktiengesellschaft, priority 2000, dated 2003)

How the values were obtained:
Type in all cases: in vivo
[1] = tested on: T1 corn plants of 1B1 (self and B73×1B1); test: Spray test of T1 progeny of transgenic corn plant 1B1; settings: 4× (250 ai g/ha) at 3-leaf stage; 6 self and 8 B73×1B1 T1 plants
Experimental: Transgenic corn plants were evaluated in the greenhouse for resistant levels to various imidazolinone herbicides and inheritance of the transgene. For corn, our protocol involved self- or cross-pollinating the transgenic plants for 2 to 3 generations and spraying T1 progeny plants to identify the resistant vs. susceptible plants. Detailed analysis for levels of herbicide resistance and the inheritance pattern. Identification of lines homozygous for the transgene is carried out in T2 generation with self-pollination and cross-pollination derived progeny plants. […] B73 and Mo17 lines were obtained USDA/ARS and Crop Sciences, UIUC, Urbana, Ill. 61801-4798. T1 plants were treated with 4×PURSUIT® imazethapyr (250 ai g/ha) at 3-leaf stage and rated as either resistant or susceptible to the herbicide. A total of 6 self and 8 B73×1B1 T1 plants were sprayed and all survived the herbicide treatments.

[2] = tested on: transgenic rice Line 29 (maize XI12 ahas2 gene); test: Greenhouse spray test of rice with PURSUIT imazethapyr (pre- and post-emergence)
[3] = tested on: untransformed rice seeds; test: Seed germination test on imazethapyr
Experimental: (§1) Three tests were performed to evaluate herbicide resistance of T2 progeny of transgenic rice. T2 progeny were first evaluated by a seed germination test followed by the greenhouse spray test and PCR analysis. As a prelude to testing the transgenic plants, an experiment was conducted to germinate untransformed rice seeds at imazethapyr concentrations ranging from 0.1 to 10 μM. […] The greenhouse spray test and PCR analysis were used to further confirm the results of the seed germination test with consistent identification of lines as resistant homozygous, susceptible homozygous or segregating hemizygous.
(§2) T2 seeds harvested from individual T1 plants were sterilized in 50% Clorox® bleach (2.3% sodium hyperchlorite) for 30 min followed by a thorough rinse with autoclaved water and pre-germinated in water for 2-3 days. Thirty to 35 pre-germinated seeds were transferred to the surface of folded paper towels placed perpendicular to the bottom of a Magenta box (Sigma, St. Louis, Mo.) to which 20 ml of H2O containing 5 μM imazethapyr (AC263,499, tech grade) was added. The seedlings were grown under 12 hr light at 26° C. for about a month. Seedlings that survived the imazethapyr treatment were scored as resistant and those that died as susceptible. 5.0 μM imazethapyr, equivalent to 5 times the threshold, was used for subsequent seed germination tests of the T2 generation. T2 seeds harvested from 16 T1 lines derived from T0 plant No. 26 and those from 15 T1 lines derived from T0 plant No. 29 were screened in the seed germination tests.

[4] = tested on: T2 seeds of transgenic rice (T0 plants No. 26 and 29); test: Seed germination test on imazethapyr; settings: 5 μM imazethapyr, 1 month treatment
Experimental: as §1, §2

[5] = tested on: untransformed Nortai (Nt) rice plants; test: Greenhouse spray test of rice with PURSUIT imazethapyr (pre- and post-emergence); settings: for No. panicles/plant Mean / No. tillers/plant Mean / Plant height Mean / Yield % 0× / Yield Mean: Nt
[6] = tested on: transgenic wheat plants (0407-1 and progeny); test: Greenhouse spray test of wheat with RAPTOR imazamox
Source text: Sow seed to 3×5-cell flats at about 10 seed per cell. Grow the plants for about two weeks. On the day of spraying, water plants well and let excess water drip out. Spray plants on a belt-sprayer with the imidazolinone herbicides at desired rates. […] Resume regular water schedule three days after spraying. Closely observe the plants for the next two to four weeks. Symptoms of herbicide injury will be visible two weeks after spraying and susceptible plants will die four to six weeks later. We usually measure plant height and score the plant morphology with a 0 to 10 rating with 0 for dead plants and 10 for healthy plants with no or minimum injury.
Wheat transformation efficiency, calculated as percent of immature embryos produced at least one imidazolinone-resistant transgenic plant ranged from 0.4 to 3.1% (Table 7). A fertile regenerant 0407-1 generated from early transformation experiment with Agrobacterium (LBA4404) containing pAC1558 was evaluated for resistance to RAPTOR® imazamox post emergence. Untransformed Ciccio and Closseo plants were very sensitive to RAPTOR® imazamox and dead at very low rate.
We also analyzed T2 progeny plants from one of the best lines of 0407-1-10. T2 seeds were planted at 10 seeds per pot and two pots per line were sprayed at 0, 10, 20, 30, 40 and 50 g/ha RAPTOR® imazamox. Most plants did show an increase in resistance over non-transformed control (FIG. 6B).

[7] = post-emergence, Rate 63 (g ai/ha)
[8] = post-emergence, Rate 125 (g ai/ha)
[9] = post-emergence, Rate 250 (g ai/ha)

CCc1cnc(C2=NC(C)(C(C)C)C(=O)N2)c(C(=O)O)c1 (stereo not shown) [PURSUIT ®, imazethapyr]
survival of T1 plants [1]: all survived
No. panicles/plant Mean [2, 7]: 27.7
No. tillers/plant Mean [2, 7]: 34.5
Plant height Mean [2, 7]: 112.5 cm
Yield % 0× [2, 7]: 93 % 0×
Yield Mean [2, 7]: 199.0 g/5 plants
No. panicles/plant Mean [2, 8]: 24.5
No. tillers/plant Mean [2, 8]: 28.3
Plant height Mean [2, 8]: 114.1 cm
Yield % 0× [2, 8]: 113 % 0×
Yield Mean [2, 8]: 240.7 g/5 plants
No. panicles/plant Mean [2, 9]: 23.0
No. tillers/plant Mean [2, 9]: 24.1
Plant height Mean [2, 9]: 110.2 cm
Yield % 0× [2, 9]: 93 % 0×
Yield Mean [2, 9]: 197.3 g/5 plants
No. panicles/plant Mean ([2]; pre-emergence, 63 g/ha): 15.6
No. tillers/plant Mean ([2]; pre-emergence, 63 g/ha): 16.2
Plant height Mean ([2]; pre-emergence, 63 g/ha): 92.7 cm
Yield % 0× ([2]; pre-emergence, 63 g/ha): 93 % 0×
Yield Mean ([2]; pre-emergence, 63 g/ha): 156.3 g/5 plants
No. panicles/plant Mean ([2]; pre-emergence, 125 g/ha): 16.3
No. tillers/plant Mean ([2]; pre-emergence, 125 g/ha): 14.3
Plant height Mean ([2]; pre-emergence, 125 g/ha): 95.1 cm
Yield % 0× ([2]; pre-emergence, 125 g/ha): 99 % 0×
Yield Mean ([2]; pre-emergence, 125 g/ha): 166.7 g/5 plants
No. panicles/plant Mean ([2]; pre-emergence, 250 g/ha): 16.2
No. tillers/plant Mean ([2]; pre-emergence, 250 g/ha): 16.3
Plant height Mean ([2]; pre-emergence, 250 g/ha): 93.1 cm
Yield % 0× ([2]; pre-emergence, 250 g/ha): 92 % 0×
Yield Mean ([2]; pre-emergence, 250 g/ha): 155.3 g/5 plants
fate of control seeds ([3]; 5 μM imazethapyr, 1 month treatment): all control seeds died
concentration at which untransformed seeds were completely inhibited ([3]; germination at 0.1 to 10 μM): 1 µM
fate of resistant transgenic plants [4]: survived and continued to grow
reduction in plant height ([5]; Nortai, pre-emergence, 63 g/ha): about 20%
reduction in yield ([5]; Nortai, pre-emergence, 63 g/ha): ~40%
No. panicles/plant Mean [5, 7]: 15.7
No. tillers/plant Mean [5, 7]: 20.0
Plant height Mean [5, 7]: 117.3 cm
Yield % 0× [5, 7]: 99 % 0×
Yield Mean [5, 7]: 227.0 g/5 plants
No. panicles/plant Mean [5, 8]: 13.9
No. tillers/plant Mean [5, 8]: 13.5
Plant height Mean [5, 8]: 94.5 cm
Yield % 0× [5, 8]: 52 % 0×
Yield Mean [5, 8]: 120.0 g/5 plants
No. panicles/plant Mean [5, 9]: 0
No. tillers/plant Mean [5, 9]: 0
Plant height Mean [5, 9]: 0 cm
Yield % 0× [5, 9]: 0 % 0×
Yield Mean [5, 9]: 0 g/5 plants
No. panicles/plant Mean ([5]; pre-emergence, 63 g/ha): 5.7
No. tillers/plant Mean ([5]; pre-emergence, 63 g/ha): 6.5
Plant height Mean ([5]; pre-emergence, 63 g/ha): 98.0 cm
Yield % 0× ([5]; pre-emergence, 63 g/ha): 56 % 0×
Yield Mean ([5]; pre-emergence, 63 g/ha): 110.7 g/5 plants
No. panicles/plant Mean ([5]; pre-emergence, 125 g/ha): 0
No. tillers/plant Mean ([5]; pre-emergence, 125 g/ha): 0
Plant height Mean ([5]; pre-emergence, 125 g/ha): 0 cm
Yield % 0× ([5]; pre-emergence, 125 g/ha): 0 % 0×
Yield Mean ([5]; pre-emergence, 125 g/ha): 0 g/5 plants
No. panicles/plant Mean ([5]; pre-emergence, 250 g/ha): 0
No. tillers/plant Mean ([5]; pre-emergence, 250 g/ha): 0
Plant height Mean ([5]; pre-emergence, 250 g/ha): 0 cm
Yield % 0× ([5]; pre-emergence, 250 g/ha): 0 % 0×
Yield Mean ([5]; pre-emergence, 250 g/ha): 0 g/5 plants
fate of control plants ([5]; post-emergence, 250 g ai/ha): killed all plants
fate of control (Nortai) plants ([5]; pre-emergence, 125 and 250 g/ha): completely killed

COCc1cnc(C2=NC(C)(C(C)C)C(=O)N2)c(C(=O)O)c1 (stereo not shown) [RAPTOR ®, imazamox]
reduction of plant height of resistant transgenic plants ([6]; 20 g/ha, T2 progeny of 0407-1-10): about 25%
T1 transgenic plants dead, out of 288 ([6]; 50 g/ha): 218
T1 transgenic plants that survived, out of 288 ([6]; 50 g/ha): 70
stunting of resistant plants ([6]; 50 g/ha, T1): 33-70%
increase of tolerance in transgenic wheat plants ([6]; in vivo): 5 ×
